The source of these data is ChEMBL document CHEMBL4038308, “Lipophosphonoxins II: Design, Synthesis, and Properties of Novel Broad Spectrum Antibacterial Agents” (J Med Chem, 2017).

≈ marks a conversion by molar mass, not a printed value. Calls of active or inactive are those of the source.

Data set [1] deals with Pseudomonas aeruginosa. The experiment in a line: Antibacterial activity against Pseudomonas aeruginosa 16575 after 24 hrs by microdilution method. Format: functional. The conditions noted are these: Pseudomonas aeruginosa, 16575, 24 h.
For data set [2], the system named is Acinetobacter baumannii. The experiment in a line: Antibacterial activity against Acinetobacter baumannii A3-08 after 24 hrs by microdilution method. Format: functional. The following applies: A3-08, 24 h.
The subject of data set [3] is Escherichia coli. Briefly: Bactericidal activity against Escherichia coli CCM 3954 assessed as reduction in bacterial count at 6.25 to 12.5 mg/L after 24 hrs by time kill assay. The data set is classed as functional.
The subject of data set [4] is Bacillus subtilis. Briefly: Antibacterial activity against Bacillus subtilis assessed as inhibition of RNA synthesis at 2.5 mg/L after 50 mins by [3H]-uridine incorporation assay. The data set is classed as functional.
Data set [5] deals with Bacillus subtilis. Briefly: Antibacterial activity against Bacillus subtilis assessed as inhibition of plasma membrane lipids synthesis at 2.5 mg/L after 50 mins by [3H]-sodium acetate incorporation assay. Format: functional.
Data set [6] has as its system Bacillus subtilis. The experiment in a line: Antibacterial activity against Bacillus subtilis assessed as inhibition of protein synthesis at 2.5 mg/L after 50 mins by [35S]-methionine incorporation assay. Format: functional.
The subject of data set [7] is Lipid bilayer. Briefly: Binding affinity to DOPG large unilamellar vesicle assessed as carboxyfluorescein leakage at 10 mg/L after 20 secs by fluorescence-based assay relative to control.
Data set [8] has as its system Staphylococcus aureus. Briefly: Induction of cytoplasmic membrane permeabilization in Staphylococcus aureus CCM 4223 assessed as increase in propidium iodide fluorescence intensity at 5 mg/L by spectrofluorometric analysis. Format: functional.
The test system of data set [9] is Pseudomonas aeruginosa. The experiment in a line: Induction of cytoplasmic membrane permeabilization in Pseudomonas aeruginosa CCM 3955 assessed as increase in propidium iodide fluorescence intensity at 5 mg/L by spectrofluorometric analysis. The data set is classed as functional.
Data set [10] deals with TERT-RPE1. Briefly: Cytotoxicity against human RPE1 cells assessed as reduction in cell viability after 48 hrs by ATPlite reagent based assay. The following applies: tert-rpe1, 48 h. A general note: In ATP-based viability assays light output follows the ATP content of the culture.
The nature of data set [11]: Chemical stability of compound at 50 to 500 mg/L at pH 0.18 after 24 hrs at room temperature by LC-MS analysis. The following applies: buffer, pH 0.18, 24 h. The data set is classed as physicochemical.
Data set [12] deals with Oryctolagus cuniculus. The experiment in a line: Toxicity in topically dosed rabbit assessed as skin irritation by measuring behavioral abnormalities measured up to 7 days post dose. The data set is classed as organism-based. The conditions noted are these: in vivo, topical_or_ocular, 168 h.
Data set [13] deals with Oryctolagus cuniculus. Briefly: Toxicity in topically applied rabbit assessed as skin irritation measured by measuring physiological abnormalities up to 7 days post dose. The conditions noted are these: in vivo, topical_or_ocular, 168 h.

Regarding `CCCCCCCCCCCCCCOP(=O)(CCN(CCCN)CCCN)OC[C@H]1O[C@@H](n2ccc(=O)[nH]c2=O)[C@H](O)[C@@H]1O` (stereo partly drawn), the minimum inhibitory concentration (MIC) (usually the smallest concentration in the dilution series that meets the test's criterion for growth inhibition) in data set [1] was 1.56 µg/mL (≈ 2.36 µM); in data set [2] it was 12.5 µg/mL (≈ 18.9 µM). In addition, the outcome in data set [3], in [7], in [8] and in [9] was Active. Further, the inhibition result in [4], in [5] and in [6] was “inactive” each time. The Activity in data set [10] is reported as 43 mg/L; in data set [12], “Non-Toxic”; in data set [13] it was “Non-Toxic”. Further, in data set [11], the Stability entry is given as “Stable”.
